Test results taken from patent publication US8653098B2, “Pyrazolopyridine PI3K inhibitor compounds and methods of use” (Genentech, Inc., priority 2008, dated 2014).

Columns and labels:
[1] = test system: MDA-MB-361.1; assay: In Vitro Cell Proliferation Assay (CellTiter-Glo), MDA-MB-361.1; format: cell-based; details: MDA-MB-361.1, Breast, mutation status PI3K
Procedure: (§1) The in vitro potency of Formula I exemplary compounds was measured by the cell proliferation assay, CellTiter-Glo® Luminescent Cell Viability Assay, commercially available from Promega Corp., Madison, Wis. (Example 33). This homogeneous assay method is based on the recombinant expression of Coleoptera luciferase (U.S. Pat. No. 5,583,024; U.S. Pat. No. 5,674,713; U.S. Pat. No. 5,700,670) and determines the number of viable cells in culture based on quantitation of the ATP present, an indicator of metabolically active cells (Crouch et al (1993) J. Immunol. Meth. 160:81-88; U.S. Pat. No. 6,602,677).
(§2) format, making it amenable to automated high-throughput screening (HTS) (Cree et al (1995) Anti Cancer Drugs 6:398-404). The homogeneous assay procedure involves adding the single reagent (CellTiter-Glo® Reagent) directly to cells cultured in serum-supplemented medium. Cell washing, removal of medium and multiple pipetting steps are not required. The system detects as few as 15 cells/well in a 384-well format in 10 minutes after adding reagent and mixing.
(§3) The homogeneous “add-mix-measure” format results in cell lysis and generation of a luminescent signal proportional to the amount of ATP present. The amount of ATP is directly proportional to the number of cells present in culture. The CellTiter-Glo® Assay generates a “glow-type” luminescent signal, produced by the luciferase reaction, which has a half-life generally greater than five hours, depending on cell type and medium used. Viable cells are reflected in relative luminescence units (RLU). The substrate, Beetle Luciferin, is oxidatively decarboxylated by recombinant firefly luciferase with concomitant conversion of ATP to AMP and generation of photons. The extended half-life eliminates the need to use reagent injectors and provides flexibility for continuous or batch mode processing of multiple plates. This cell proliferation assay an be used with various multiwell formats, e.g. 96 or 384 well format. Data can be recorded by luminometer or CCD camera imaging device. The luminescence output is presented as relative light units (RLU), measured over time.
(§4) Efficacy of Formula I compounds were measured by a cell proliferation assay employing the following protocol (Promega Corp. Technical Bulletin TB288; Mendoza et al (2002) Cancer Res. 62:5485-5488):
(§5) 1. An aliquot of 100 n1 of cell culture containing about 10^4 cells (PC3, Detroit562, or MDAMB361.1) in medium was deposited in each well of a 384-well, opaque-walled plate.
(§6) 2. Control wells were prepared containing medium and without cells.
(§7) 3. The compound was added to the experimental wells and incubated for 3-5 days.
(§8) 4. The plates were equilibrated to room temperature for approximately 30 minutes.
(§9) 5. A volume of CellTiter-Glo Reagent equal to the volume of cell culture medium present in each well was added.
(§10) 6. The contents were mixed for 2 minutes on an orbital shaker to induce cell lysis.
(§11) 7. The plate was incubated at room temperature for 10 minutes to stabilize the luminescence signal.
(§12) 8. Luminescence was recorded and reported in graphs as RLU=relative luminescence units.
(§13) Alternatively, cells were seeded at optimal density in a 96 well plate and incubated for 4 days in the presence of test compound. Alamar Blue™ was subsequently added to the assay medium, and cells were incubated for 6 h before reading at 544 nm excitation, 590 nm emission. EC50 values were calculated using a sigmoidal dose response curve fit.
(§14) The anti-proliferative effects of Formula I exemplary compounds were measured by the CellTiter-Glo® Assay against various tumor cell lines, including the following: […]

[2] = test system: PC3; assay: In Vitro Cell Proliferation Assay (CellTiter-Glo), PC3; format: cell-based; details: Homo sapiens, PC-3; PC3, Prostate, mutation status PTEN
Procedure: as §1, §2, §3, §4, §5, §6, §7, §8, §9, §10, §11, §12, §13, §14

[3] = molecular target: T1, p110 alpha PI3K (Homo sapiens, UniProt P42336); assay: p110α (alpha) PI3K Binding Assay (fluorescence polarization; alternatively radiometric); format: biochemical; details: tested for PI3K activity according to the methods of this invention
T1 construct: purchased Upstate Cell Signaling Solutions, Charlottesville, Va
T1 sequence (P42336 whole entry): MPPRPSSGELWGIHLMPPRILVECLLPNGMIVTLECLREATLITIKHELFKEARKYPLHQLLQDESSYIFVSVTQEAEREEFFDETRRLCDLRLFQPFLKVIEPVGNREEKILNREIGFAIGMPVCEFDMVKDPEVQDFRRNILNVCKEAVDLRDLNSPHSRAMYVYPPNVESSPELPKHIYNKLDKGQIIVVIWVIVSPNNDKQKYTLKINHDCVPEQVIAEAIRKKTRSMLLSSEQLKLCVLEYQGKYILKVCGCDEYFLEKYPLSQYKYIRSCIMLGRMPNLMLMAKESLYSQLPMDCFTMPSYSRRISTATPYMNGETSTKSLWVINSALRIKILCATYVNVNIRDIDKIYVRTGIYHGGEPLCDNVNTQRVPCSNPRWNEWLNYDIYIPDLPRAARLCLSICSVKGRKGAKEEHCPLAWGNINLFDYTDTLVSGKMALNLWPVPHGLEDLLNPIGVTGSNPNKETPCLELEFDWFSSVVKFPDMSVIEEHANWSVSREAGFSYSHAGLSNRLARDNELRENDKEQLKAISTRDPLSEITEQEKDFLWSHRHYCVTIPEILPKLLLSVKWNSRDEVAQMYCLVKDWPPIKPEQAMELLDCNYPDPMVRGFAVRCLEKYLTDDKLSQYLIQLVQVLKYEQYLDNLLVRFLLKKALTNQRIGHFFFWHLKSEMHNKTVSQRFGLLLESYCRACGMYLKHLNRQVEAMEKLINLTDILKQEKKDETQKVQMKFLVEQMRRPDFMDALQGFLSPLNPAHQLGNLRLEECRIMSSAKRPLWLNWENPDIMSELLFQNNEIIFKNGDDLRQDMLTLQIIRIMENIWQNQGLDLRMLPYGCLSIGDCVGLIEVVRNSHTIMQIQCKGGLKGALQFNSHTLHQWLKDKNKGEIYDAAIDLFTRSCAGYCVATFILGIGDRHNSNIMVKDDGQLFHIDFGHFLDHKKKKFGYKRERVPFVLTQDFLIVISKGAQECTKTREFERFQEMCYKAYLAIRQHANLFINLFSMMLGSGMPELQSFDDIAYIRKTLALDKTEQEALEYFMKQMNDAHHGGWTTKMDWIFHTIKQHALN
T1 sequence (P27986 whole entry partner): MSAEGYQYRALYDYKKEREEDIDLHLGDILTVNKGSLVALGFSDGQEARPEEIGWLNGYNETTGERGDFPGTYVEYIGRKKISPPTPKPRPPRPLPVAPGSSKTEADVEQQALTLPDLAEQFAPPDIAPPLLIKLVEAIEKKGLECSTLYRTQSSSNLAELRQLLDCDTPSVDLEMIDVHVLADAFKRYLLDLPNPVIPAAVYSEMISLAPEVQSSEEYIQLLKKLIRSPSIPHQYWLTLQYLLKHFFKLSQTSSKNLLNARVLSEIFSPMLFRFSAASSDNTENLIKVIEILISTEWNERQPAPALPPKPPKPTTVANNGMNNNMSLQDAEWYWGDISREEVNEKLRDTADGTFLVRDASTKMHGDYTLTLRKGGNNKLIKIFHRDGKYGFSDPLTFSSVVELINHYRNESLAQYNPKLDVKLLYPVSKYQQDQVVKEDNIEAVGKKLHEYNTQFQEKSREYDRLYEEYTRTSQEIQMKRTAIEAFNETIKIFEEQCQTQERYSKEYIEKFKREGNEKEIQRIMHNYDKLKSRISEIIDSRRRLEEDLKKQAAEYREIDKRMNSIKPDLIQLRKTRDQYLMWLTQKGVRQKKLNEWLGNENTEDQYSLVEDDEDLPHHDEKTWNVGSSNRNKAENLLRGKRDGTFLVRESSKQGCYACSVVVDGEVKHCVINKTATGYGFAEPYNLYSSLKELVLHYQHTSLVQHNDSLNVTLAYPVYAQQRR
Procedure: Binding Assays: Initial polarization experiments were performed on an Analyst HT 96-384 (Molecular Devices Corp, Sunnyvale, Calif.). Samples for fluorescence polarization affinity measurements were prepared by addition of 1:3 serial dilutions of p110 alpha PI3K (Upstate Cell Signaling Solutions, Charlottesville, Va.) starting at a final concentration of 20 ug/mL in polarization buffer (10 mM Tris pH 7.5, 50 mM NaCl, 4 mM MgCl2, 0.05% Chaps, and 1 mM DTT) to 10 mM PIP2 (Echelon-Inc., Salt Lake City, Utah.) final concentration. After an incubation time of 30 minutes at room temperature, the reactions were stopped by the addition of GRP-1 and PIP3-TAMRA probe (Echelon-Inc., Salt Lake City, Utah.) 100 nM and 5 nM final concentrations respectively. […] This experiment also establishes the appropriate protein concentration to use in subsequent competition experiments with inhibitors.
Inhibitor IC50 values were determined by addition of the 0.04 mg/mL p110 alpha PI3K (final concentration) combined with PIP2 (10 mM final concentration) to wells containing 1:3 serial dilutions of the antagonists in a final concentration of 25 mM ATP (Cell Signaling Technology, Inc., Danvers, Mass.) in the polarization buffer. After an incubation time of 30 minutes at room temperature, the reactions were stopped by the addition of GRP-1 and PIP3-TAMRA probe (Echelon-Inc., Salt Lake City, Utah.) 100 nM and 5 nM final concentrations respectively.
Alternatively, inhibition of PI3K was determined in a radiometric assay using purified, recombinant enzyme and ATP at a concentration of 1 uM. The Formula I compound was serially diluted in 100% DMSO. The kinase reaction was incubated for 1 h at room temperature, and the reaction was terminated by the addition of PBS. IC50 values were subsequently determined using sigmoidal dose-response curve fit (variable slope).

SMILES	EC50 [1] [nM]	EC50 [2] [nM]	IC50 [3] [nM]
Cn1ncc2c(Oc3ccc(S(C)(=O)=O)cc3)cc(-c3cccc4[nH]ncc34)nc21 [Compound 101, 6-(1H-indazol-4-yl)-1-methyl-4-(4-(methylsulfonyl)phenoxy)-1H-pyrazolo[3,4-b]pyridine]	965	881	–
Cn1ncc2c(Oc3ccc(S(C)(=O)=O)cc3)cc(-c3cccc4c(N)n[nH]c34)nc21 [Compound 105, 7-(1-methyl-4-(4-(methylsulfonyl)phenoxy)-1H-pyrazolo[3,4-b]pyridin-6-yl)-1H-indazol-3-amine]	–	–	13.7
CNC(=O)c1cccc(-c2cc(-c3cccc4[nH]ncc34)nc3c2cnn3C)c1 [Compound 111, 3-(6-(1H-indazol-4-yl)-1-methyl-1H-pyrazolo[3,4-b]pyridine-4-yl)-N-methylbenzamide]	1000	2400	–
Cn1ncc2c(-c3cccc(NS(C)(=O)=O)c3)cc(-c3cccc4[nH]ncc34)nc21 [Compound 113, N-(3-(6-(1H-indazol-4-yl)-1-methyl-1H-pyrazolo[3,4-b]pyridin-4-yl)phenyl)methanesulfonamide]	749	561	–
Cn1ncc2c(Nc3ccc(S(C)(=O)=O)cc3)cc(-c3cccc4[nH]ncc34)nc21 [Compound 104, 6-(1H-indazol-4-yl)-1-methyl-N-(4-(methylsulfonyl)phenyl)-1H-pyrazolo[3,4-b]pyridin-4-amine]	475	2000	2.23
COc1ccc(Oc2cc(-c3cccc4[nH]ncc34)nc3c2cnn3C)cc1OC [Compound 108, 4-(3,4-dimethoxyphenoxy)-6-(1H-indazol-4-yl)-1-methyl-1H-pyrazolo[3,4-b]pyridine]	–	–	16
Cc1cccc(C)c1Oc1cc(-c2cccc3[nH]ncc23)nc2c1cnn2C [Compound 106, 4-(2,6-dimethylphenoxy)-6-(1H-indazol-4-yl)-1-methyl-1H-pyrazolo[3,4-b]pyridine]	–	–	399
Cn1ncc2c(Oc3ccc(S(C)(=O)=O)cc3)cc(-c3ccc4[nH]ncc4c3)nc21 [Compound 102, 6-(1H-indazol-5-yl)-1-methyl-4-(4-(methylsulfonyl)phenoxy)-1H-pyrazolo[3,4-b]pyridine]	–	–	224
COc1cccc(Oc2cc(-c3cccc4[nH]ncc34)nc3c2cnn3C)c1 [Compound 107, 6-(1H-indazol-4-yl)-4-(3-methoxyphenoxy)-1-methyl-1H-pyrazolo[3,4-b]pyridine]	–	–	53
CCCNc1cc(-c2cccc3[nH]ncc23)nc2c1cnn2C [Compound 103, 6-(1H-indazol-4-yl)-1-methyl-N-propyl-1H-pyrazolo[3,4-b]pyridin-4-amine]	–	–	82.8

Results, then the molecule that gave them:

EC50 [1] [nM]	EC50 [2] [nM]	IC50 [3] [nM]	SMILES
–	–	153	Cn1ncc2c(Oc3ccc(S(C)(=O)=O)cc3)cc(-c3cccc4c(N)noc34)nc21 [Compound 121, 7-(1-methyl-4-(4-(methylsulfonyl)phenoxy)-1H-pyrazolo[3,4-b]pyridin-6-yl)benzo[d]isoxazol-3-amine]
–	–	575	Cn1ncc2c(Oc3ccc(S(C)(=O)=O)cc3)cc(-c3ccnc(O)c3)nc21 [Compound 120, 4-(1-methyl-4-(4-(methylsulfonyl)phenoxy)-1H-pyrazolo[3,4-b]pyridin-6-yl)pyridin-2-ol]
346	750	–	Cn1ncc2c(-c3ccc(S(C)(=O)=O)cc3)cc(-c3cccc4[nH]ncc34)nc21 [Compound 115, 6-(1H-indazol-4-yl)-1-methyl-4-(4-(methylsulfonyl)phenyl)-1H-pyrazolo[3,4-b]pyridine]
–	–	47.5	COc1ccc(-c2cc(Oc3ccc(S(C)(=O)=O)cc3)c3cnn(C)c3n2)cn1 [Compound 117, 6-(6-methoxypyridin-3-yl)-1-methyl-4-(4-(methylsulfonyl)phenoxy)-1H-pyrazolo[3,4-b]pyridine]
2400	4900	–	COc1cc(-c2cc(Oc3ccc(S(C)(=O)=O)cc3)c3cnn(C)c3n2)ccn1 [Compound 118, 6-(2-methoxypyridin-4-yl)-1-methyl-4-(4-(methylsulfonyl)phenoxy)-1H-pyrazolo[3,4-b]pyridine]
